Test results reported in ChEMBL document CHEMBL1136551, “Characterization of the mechanism of anticonvulsant activity for a selected set of putative AMPA receptor antagonists” (Bioorg Med Chem Lett, 2003).

Key:
[1] = biological target: Glutamate receptor ionotropic, NMDA 1 (Rattus norvegicus, UniProt P35439); assay: Inhibition of specific binding of [3H]glycine to NMDA receptors, in rat cortical membranes at 32 uM conc.; assay type: cell membranes, Membrane
[2] = biological target: Glutamate receptor ionotropic, NMDA 1 (Rattus norvegicus) (UniProt P35439); assay: Percentage inhibition of [3H]glycine to NMDA receptors of rat cortical membranes at 32 uM; assay type: cell membranes; settings: Membrane
[3] = biological target: Glutamate receptor ionotropic, AMPA (Rattus norvegicus) (UniProt P19491+P19492+P19493+P19490); assay: Percent inhibition of [3H]CP-526427 binding to Ionotropic glutamate receptor AMPA in rat forebrain membranes at 32 uM; assay type: cell membranes; settings: Membrane
Rattus norvegicus = species: Rattus norvegicus; assay: Inhibition of KA-induced increase in [Ca2+]i in rat cerebellar granule neurons; assay type: functional
[4] = biological target: T1, Glutamate receptor ionotropic, AMPA (Rattus norvegicus, UniProt P19490+P19491+P19492+P19493); assay: Ability to displace [3H]CP-526427 from the Ionotropic glutamate receptor AMPA binding site in rat forebrain membranes; assay type: cell membranes, Brain, Membrane
[5] = biological target: T1, Glutamate receptor ionotropic, AMPA; assay: Ability to displace [3H]CP-526427 from the AMPA receptor binding site in rat forebrain membranes; assay type: cell membranes, Membrane
Mus musculus [6] = species: Mus musculus; assay: Anticonvulsant activity against audiogenic seizures in DBA/2 mice measured in tonic phase; assay type: functional
Mus musculus [7] = species: Mus musculus; assay: Anticonvulsant activity against audiogenic seizures in DBA/2 mice measured in clonic phase; assay type: functional

SMILES	IC50 [1]	inhibition [2]	inhibition [3]	IC50 (Rattus norvegicus)	IC50 [4]	IC50 [5]	ED50 (Mus musculus [6])	ED50 (Mus musculus [7])
O=C(O)c1cc(O)c2c(Cl)cc(Cl)cc2n1	0.09 µM	–	–	–	–	–	–	–
CNC(=O)N1N=C(c2ccc(N)cc2)c2cc3c(cc2CC1=O)OCO3	–	0%	59%	11 µM	12 µM	–	–	–
Nc1ccc(-c2nnc(O)c3cc4c(cc23)OCO4)cc1	–	12%	13%	> 100 µM	–	–	–	–
CC1=NN=C(c2ccc(N)cc2)c2cc3c(cc2C1)OCO3 [GYKI-52466]	–	18%	–	22 µM	–	12.6 µM	–	–
CCCCNC(=O)n1nc(-c2ccc(N)cc2)c2cc3c(cc2c1=O)OCO3	–	13%	0%	> 100 µM	–	–	–	–
Nc1ccc(C2=NNC(=O)Cc3cc4c(cc32)OCO4)cc1	–	0%	74%	13 µM	32 µM	–	–	–
Nc1ccc(C2NNC(=O)Cc3cc4c(cc32)OCO4)cc1 (centres undefined)	–	9%	10%	> 100 µM	–	–	6.47 µmol/kg	–
CCCCNC(=O)N1NC(c2ccc(N)cc2)c2cc3c(cc2CC1=O)OCO3 (centres undefined)	–	13%	0%	> 100 µM	–	–	32.7 µmol/kg	39.2 µmol/kg
CNC(=O)NC(=O)Cc1cc2c(cc1Cc1ccc(N)cc1)OCO2	–	0%	0%	–	–	–	–	–
CNC(=O)NC(=O)Cc1cc2c(cc1C(=O)c1ccc(N)cc1)OCO2	–	11%	3%	–	–	–	–	–
Nc1cccc(C2=NNC(=O)Cc3cc4c(cc32)OCO4)c1	–	0%	31%	> 320 µM	> 320 µM	–	–	–
NS(=O)(=O)c1cccc2c1c([N+](=O)[O-])cc1nc(O)c(O)nc12	–	3%	–	–	–	–	–	–
CNC(=O)N1NC(c2ccc(N)cc2)c2cc3c(cc2CC1=O)OCO3 (centres undefined)	–	12%	0%	> 100 µM	–	–	12.4 µmol/kg	14.7 µmol/kg
CNC(=O)N/N=C(\c1ccc(N)cc1)c1cc2c(cc1CC(=O)OC)OCO2	–	2%	16%	–	–	–	–	7.87 µmol/kg
